Consider three compounds from patent US8575092B2, “Gelling hydrophobic injectable polymer compositions” (Efrat Biopolymers Ltd., priority 2005, dated 2013).

A short description of data set [1]: Solubility of bupivacaine free base in the polymer. Type of data set: physicochemical. The protocol:
Bupivacaine free base (5, 7, 10% w/w) was incorporated in the liquid polymers by mixing the drug powder in the polymer at 40° C. and filling 1 ml syringe with this formulation. This formulation is a semi-solid at room temperature and liquid at body temperature. […] The free base bupivacaine formed a clear solution in the polymer while the HCl salt was a fine dispersion.
Bupivacaine was incorporated in the polymer without affecting the polymer molecular weight, as confirmed by GPC. Bupivacaine free base (BFB) is easily soluble in P(SA-RA) up to 15% w/w BFB. The hydrochloride salt dispersed well in the polymer without affecting its viscosity at least up to 15% w/w loading. P(SA-RA) 2:8 and 3:7 formulations containing 5% and 7% of bupivacaine constantly released the drug at a first order profile with about 60% of the incorporated drug was released during 7 days in buffer, formulation containing 10% released approximately 70% of its content during this period. For all experiments, the higher MW polymers (Mw=18,000) release the drug at a slower rate, between 10 and 20% less the amount released at each time point, compared to the low MW polymers (Mw=5,000).

The conditions of data set [2]: mouse.
Method: Inbred 8-10 week old female C3H mice, weighing about 20 g (Harlan Laboratories, Israel) were kept under specific pathogen free (SPF) conditions and given free access to irradiated sterile food and acidified water throughout the experiment. Blank polymer and pasty formulations containing paclitaxel (5% and 10% w/w) were injected subcutaneously to the backspace via a 23G needle into 12 groups of four C3H mice in each group. […] After 1, 7, 21 and 70 days, mice were sacrificed by cervical dislocation. The polymer implant was taken out, weighed before and after lyophilization and examined for paclitaxel content in the remaining formulation.
In a further data set the test system is S. aureus. Description: Minimum inhibitory concentration of gentamicin. Format: cell-based. To be noted: S. aureus used in this study. The protocol:
The minimum inhibitory concentration of gentamicin for the S. aureus used in this study is 2-4 μg/ml. […] No effect was found in these wells: the O.D. was approximately 0.7. In the wells that contained S. aureus in TSB only, O.D. of approximately 0.6 was found. In view of the results of gentamicin release (FIG. 14) and the profound bacterial inhibition by the diluted solutions (FIG. 15), there is probably a significant antibacterial activity in the release medium at an earlier stage.

Turning to `CCCCN1CCCCC1C(=O)Nc1c(C)cccc1C` (stereo not drawn) [BFB, Bupivacaine], the “solubility in P(SA-RA)” value in data set [1] was “up to 15 % w/w”.

Regarding “Poly(sebacic acid-co-ricinoleic acid ester anhydride) 2:8 [P(SA:RA) (2:8)]”, in data set [2], the in vivo degradation entry is reported as “completely degraded”.

Consider gentamicin, for which the minimum inhibitory concentration in the data set with S. aureus lay within 2 to 4 µg/mL.
